The values below come from PubChem BioAssay (NCI).

Some test systems named below: SK-MEL-2 melanoma; NCI-H460 lung; LOX IMVI melanoma; U251 CNS; HCC-2998 colon; SNB-19 CNS; SF-295 CNS; SK-MEL-5 melanoma; CCRF-CEM leukemia; NCI-H23 lung.
What all share (assay): growth of human tumour cells (NCI), 48 h

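Compound exposure: 48 hours, 5 concentrations, 96-well plates. The concentration for 50% growth inhibition is given as GI50. TGI denotes the concentration required for complete inhibition of growth.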

`Cc1cc(NC(=O)NCCOc2ccc(N3C(N)=NC(N)=NC3(C)C)cc2Cl)ccc1S(=O)(=O)F`: the GI50 in the assay on SK-MEL-2 melanoma was 5.29 µM; with NCI-H460 lung, 0.391 µM; with LOX IMVI melanoma, 0.74 µM; with U251 CNS it was 0.716 µM; in the assay with HCC-2998 colon it was 2.96 µM; in the assay with SNB-19 CNS it was 4.31 µM. Moreover, the GI50 was 5.16 µM with SF-295 CNS, 1.19 µM in the assay with SK-MEL-5 melanoma, 0.805 µM in the assay with CCRF-CEM leukemia and 2.76 µM in the assay on NCI-H23 lung. The TGI is 27.1 µM in the assay on SK-MEL-2 melanoma; 17.6 µM in the assay on NCI-H460 lung; over 100 µM with LOX IMVI melanoma; over 72.9 µM in the assay with U251 CNS; over 100 µM with HCC-2998 colon; over 100 µM in the assay on SNB-19 CNS. The TGI with SF-295 CNS is over 85.1 µM; with SK-MEL-5 melanoma, 11.4 µM; in the assay on CCRF-CEM leukemia it was over 67.6 µM; in the assay on NCI-H23 lung, over 100 µM.

Turning to `O=NNc1ccc(-c2ccccc2)cn1`, the TGI is 52 µM in the assay with SK-MEL-2 melanoma; 42.9 µM in the assay on NCI-H460 lung; 28.8 µM with LOX IMVI melanoma; over 62.5 µM with U251 CNS; over 76.4 µM in the assay with HCC-2998 colon; over 69 µM in the assay with SNB-19 CNS. In addition, the TGI was 62.2 µM with SF-295 CNS, 31.7 µM with SK-MEL-5 melanoma, over 100 µM in the assay on CCRF-CEM leukemia and 25.2 µM in the assay with NCI-H23 lung.

In the case of `CN(C)S(=O)(=O)c1cccc(C(=O)Nc2nc(-c3ccc(F)c(F)c3)cs2)c1`, the GI50 is 19.4 µM in the assay with SK-MEL-2 melanoma; 12.8 µM in the assay on NCI-H460 lung; 24 µM with LOX IMVI melanoma; 11.5 µM in the assay with U251 CNS; 58.9 µM in the assay on HCC-2998 colon; 35.4 µM in the assay with SNB-19 CNS. In addition, the GI50 in the assay on SF-295 CNS was 2.58 µM; with SK-MEL-5 melanoma it was 3.81 µM; with CCRF-CEM leukemia, 10.7 µM; in the assay on NCI-H23 lung it was 10.3 µM. The TGI with SK-MEL-2 melanoma was over 100 µM; in the assay with NCI-H460 lung, over 100 µM; with LOX IMVI melanoma, over 100 µM; in the assay with U251 CNS it was over 74 µM; in the assay with HCC-2998 colon it was over 100 µM; with SNB-19 CNS, over 100 µM. In addition, the TGI with SF-295 CNS was 26.4 µM; in the assay with SK-MEL-5 melanoma, over 25.2 µM; in the assay with CCRF-CEM leukemia, over 100 µM; in the assay on NCI-H23 lung, over 100 µM.

Consider `CC(=O)c1cc2c(Br)cccc2oc1=O`, for which the TGI in the assay on SK-MEL-2 melanoma, in the assay on NCI-H460 lung, in the assay on LOX IMVI melanoma, with U251 CNS, with HCC-2998 colon and in the assay with SNB-19 CNS was over 100 µM in each case. In addition, the TGI in the assay with SF-295 CNS, with SK-MEL-5 melanoma, in the assay on CCRF-CEM leukemia and in the assay on NCI-H23 lung was over 100 µM throughout.

With `NCC(=O)Nc1ccc(Cl)cc1C(=O)c1ccc[nH]1`, the TGI in the assay with SK-MEL-2 melanoma, in the assay with NCI-H460 lung, in the assay with LOX IMVI melanoma, in the assay on U251 CNS, in the assay on HCC-2998 colon and in the assay with SNB-19 CNS was over 100 µM in each case. Besides, the TGI is over 100 µM in the assay with SF-295 CNS, over 100 µM in the assay with SK-MEL-5 melanoma, 22.5 µM with CCRF-CEM leukemia and over 100 µM in the assay on NCI-H23 lung.

In the case of `CN[C@@H](C)C(=O)N[C@H](C(=O)N1CCC[C@H]1c1nc(C(=O)c2ccc(F)cc2)cs1)C1CCCCC1`, the GI50 with SK-MEL-2 melanoma is 2.93 µM; with NCI-H460 lung it was 27.8 µM; in the assay on LOX IMVI melanoma it was 19 µM; in the assay with U251 CNS, 15.6 µM; with HCC-2998 colon, 16 µM; with SNB-19 CNS, 53.9 µM. Moreover, the GI50 in the assay on SF-295 CNS was 19.4 µM; in the assay on SK-MEL-5 melanoma it was 13.6 µM; in the assay on CCRF-CEM leukemia it was 20.5 µM; with NCI-H23 lung, 11.2 µM. In addition, the TGI in the assay with SK-MEL-2 melanoma was 23.8 µM; with NCI-H460 lung, over 72.8 µM; in the assay with LOX IMVI melanoma it was 37 µM; in the assay on U251 CNS, 33.3 µM; with HCC-2998 colon it was 31.2 µM; in the assay with SNB-19 CNS, over 100 µM. Further, the TGI in the assay with SF-295 CNS is 46.1 µM; in the assay on SK-MEL-5 melanoma, 28.7 µM; in the assay on CCRF-CEM leukemia, over 84.6 µM; in the assay on NCI-H23 lung, over 62.1 µM.

On to `COc1ccc2nc3cc(Cl)ccc3c(Sc3ccc(N)cc3)c2c1`, for which the TGI came out at 27.7 µM in the assay on SK-MEL-2 melanoma; 21.1 µM in the assay on NCI-H460 lung; 20.9 µM in the assay with LOX IMVI melanoma; 22.6 µM in the assay on U251 CNS; 25.1 µM in the assay with HCC-2998 colon; 33.4 µM in the assay on SNB-19 CNS. The TGI came out at 38.9 µM in the assay on SF-295 CNS, 25.3 µM in the assay with SK-MEL-5 melanoma, 18.7 µM in the assay with CCRF-CEM leukemia and 27.9 µM in the assay on NCI-H23 lung.

Regarding `C=CC[P@]1(=O)O[C@H](c2ccccc2)C(C)N1C(C)C` (stereo not given in full), the TGI with SK-MEL-2 melanoma, in the assay on NCI-H460 lung, in the assay on LOX IMVI melanoma, in the assay with U251 CNS, in the assay on HCC-2998 colon and in the assay with SNB-19 CNS was over 100 µM throughout. The TGI with SF-295 CNS, in the assay with SK-MEL-5 melanoma, with CCRF-CEM leukemia and in the assay on NCI-H23 lung was over 100 µM throughout.

For the compound `C[C@H]1C[C@@H](n2c(Nc3ccc(OC(F)(F)F)cc3)nc3cc(CCC(=O)O)ccc32)CC(C)(C)C1`, the GI50 with SK-MEL-2 melanoma is 15 µM; in the assay with NCI-H460 lung it was 9.74 µM; in the assay on LOX IMVI melanoma, 11.8 µM; in the assay on U251 CNS, 11.2 µM; in the assay on HCC-2998 colon, 6.68 µM; in the assay with SNB-19 CNS, 12.1 µM. For the same compound, the GI50 with SF-295 CNS is 4.85 µM; in the assay on SK-MEL-5 melanoma, 5.38 µM; with CCRF-CEM leukemia, 16.2 µM; with NCI-H23 lung it was 12.9 µM. For the same compound, the TGI amounted to 34.6 µM in the assay with SK-MEL-2 melanoma; 24.7 µM in the assay on NCI-H460 lung; 25.9 µM in the assay on LOX IMVI melanoma; 28.1 µM in the assay with U251 CNS; 20.8 µM in the assay with HCC-2998 colon; 31.2 µM in the assay on SNB-19 CNS. The TGI in the assay on SF-295 CNS was 19.1 µM; in the assay on SK-MEL-5 melanoma, 17.9 µM; with CCRF-CEM leukemia, 44.5 µM; in the assay with NCI-H23 lung it was 30.5 µM.
